For 19 molecules, GI50 and TGI results are on record in PubChem BioAssay (NCI).

What all share (assay): NCI-60 cell line screen, 48 h
In assay [1] the test system is RPMI-8226 leukemia.
The subject of assay [2] is RXF 393 renal.
Assay [3] relates to SNB-75 CNS.
For assay [4], the system named is DU-145 prostate.
For assay [5], the system named is OVCAR-3 ovarian.
The subject of assay [6] is ACHN renal.
Assay [7] deals with CAKI-1 renal.
In assay [8] the test system is SK-MEL-2 melanoma.
In assay [9] the test system is SF-295 CNS.
Assay [10] has as its system SF-539 CNS.

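Grown in 96-well plates, cells were treated for 48 hours with each compound at five concentrations. Insufficient inhibition: endpoint recorded as highest concentration tested. At the GI50, growth is halved. TGI: concentration producing complete growth inhibition.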

With `O=C(Nc1ccc(-n2ccc3c(NC(=O)c4ccccc4)ncnc32)cc1)Nc1ccc(Cl)c(Cl)c1`, the GI50 in [1] was 1.21 µM; in assay [2] it was 6.48 µM; in assay [3], 1.03 µM; in assay [4], 1.9 µM; in assay [5], 1.35 µM; in [6], 6.25 µM. The GI50 in assay [7] was 8.79 µM; in assay [8], 5.2 µM; in [9] it was 4.5 µM; in assay [10], 1.32 µM. Also, the TGI in assay [1] is 3.2 µM; in assay [2] it was 13.3 µM; in [3], 5.27 µM; in assay [4], 6.31 µM; in assay [5], 3.5 µM; in assay [6] it was 14.2 µM. In addition, the TGI in assay [7] was 21.2 µM; in assay [8], 12.9 µM; in assay [9], 14.2 µM; in [10], 10.3 µM.

With `CC(=O)OCC1OC(Nn2c(=O)[nH]c3ccccc3c2=O)C(OC(C)=O)C(OC(C)=O)C1OC(C)=O` (stereo not given), the TGI in assay [1], in [2], in [3], in [4], in assay [5] and in [6] was greater than 100 µM throughout. Further, the TGI in assay [7], in [8], in assay [9] and in assay [10] was greater than 100 µM throughout.

As to `CCOC(=O)C1=CCOc2cc(N(C)C)ccc21`, the TGI was greater than 100 µM in assay [1]; greater than 100 µM in assay [2]; greater than 100 µM in assay [3]; greater than 100 µM in assay [4]; 55.3 µM in [5]; greater than 100 µM in assay [6]. Moreover, the TGI in assay [7], in assay [8], in assay [9] and in [10] was greater than 100 µM each time.

For the molecule `C=C(CCC/C(C)=C/C=C/[C@@H](C)CCCc1ccoc1)C[C@@H]1OC(=O)[C@H](C)[C@@H]1O`, the TGI in [1] came to 43.4 µM; in [2], 19.3 µM; in assay [3], 19 µM; in [4] it was 23.5 µM; in assay [5], 16 µM; in assay [6] it was 16.2 µM. Further, the TGI in [7] came out at 20.1 µM; in assay [8], 17.7 µM; in assay [9] it was 19.1 µM; in [10] it was 19.4 µM.

Consider `COc1ccccc1C1ON=C(c2ccc([N+](=O)[O-])cc2)N1C12CC3CC(CC(C3)C1)C2` (stereo not given), for which the TGI was greater than 100 µM in assay [1]; 60.4 µM in assay [2]; greater than 100 µM in [3]; greater than 100 µM in assay [4]; greater than 100 µM in assay [5]; greater than 100 µM in [6]. In addition, the TGI in [7], in [8], in assay [9] and in [10] was greater than 100 µM in each case.

In the case of `CC(C)=CCC/C(C)=C/CC/C(C)=C/CC/C(C)=C/CC/C(C)=C/CC/C(C)=C/CC/C(C)=C/CC/C(C)=C/CC/C(C)=C/CO`, the TGI in assay [1], in assay [2], in assay [3], in [4], in [5] and in assay [6] was greater than 100 µM throughout. The TGI in [7], in assay [8], in assay [9] and in assay [10] was greater than 100 µM each time.

On to `NC(Cc1ccc(N(CCCl)CCCl)cc1)C(=O)NC(CCC(=O)O)C(=O)O` (stereo not given), for which the TGI in [1], in [2], in assay [3], in assay [4], in assay [5] and in assay [6] was greater than 100 µM throughout. The TGI in assay [7], in assay [8], in [9] and in assay [10] was greater than 100 µM throughout.

On to `COc1cc(NCCC2CCCCN2)c2ncccc2c1` (stereo not given), for which the TGI is greater than 68.1 µM in [1]; 77 µM in [2]; greater than 100 µM in assay [3]; greater than 100 µM in assay [4]; greater than 62.7 µM in assay [5]; greater than 100 µM in assay [6]. Besides, the TGI in assay [7] is greater than 100 µM; in [8] it was greater than 91.1 µM; in assay [9], greater than 100 µM; in [10], greater than 100 µM.

Turning to `O=C1C2=C(CC3=C(C2)CS(=O)(=O)C3)C(=O)C2=C1CC1=C(C2)CS(=O)(=O)C1`, the TGI is 55.5 µM in [1]; 49.6 µM in assay [2]; greater than 41 µM in assay [3]; greater than 87 µM in assay [4]; 9.03 µM in assay [5]; greater than 66.2 µM in assay [6]. The TGI in assay [7] is greater than 69.5 µM; in [8], greater than 75.2 µM; in assay [9] it was 44.9 µM; in [10], greater than 75.2 µM.

Take `COC(=O)C(Cc1c[nH]c2ccccc12)NC(=O)c1ccc(-c2ccc(Cl)cc2Cl)o1` (stereo not given): the TGI in [1], in [2], in assay [3], in assay [4], in assay [5] and in assay [6] was greater than 100 µM in each case. The TGI in assay [7] is greater than 100 µM; in [8], greater than 100 µM; in assay [9] it was greater than 100 µM; in [10], 91 µM.

`COC(=O)c1cc(C(=CCC[C@H]2CC[C@@]3(C)C(CCC4C3CC[C@@]3(C)C4CC[C@@H]3C(C)CCCC(C)C)C2)c2cc(Cl)c(O)c(C(=O)OC)c2)cc(Cl)c1O` (stereo not given in full): the TGI in assay [1], in assay [2], in assay [3], in [4], in [5] and in [6] was greater than 10 µM in each case. Moreover, the TGI in assay [7], in assay [8], in assay [9] and in assay [10] was greater than 10 µM throughout.

As to `CS(=O)(=O)c1ccc(N=C/C=C/Nc2ccc(S(C)(=O)=O)cc2)cc1`, the TGI in assay [1], in assay [2], in assay [3], in [4], in assay [5] and in assay [6] was greater than 100 µM in each case. Further, the TGI in assay [7], in [8], in assay [9] and in assay [10] was greater than 100 µM each time.

In the case of `C/C=C(\C)C(O)C(C)C(O)C/C=C(C)/C=C(\C)C/C(C)=C/C/C=C(\C)C(O)C(C)c1ccc(CCC)c(=O)o1` (stereo not given), the TGI in assay [1] was greater than 100 µM; in [2] it was 77.3 µM; in assay [3], 25.2 µM; in [4], 91.7 µM; in assay [5], 27.8 µM; in assay [6] it was 53.2 µM. The TGI in assay [7] turned out to be 31.8 µM; in assay [8] it was 45 µM; in [9] it was 16.9 µM; in [10], 28.2 µM.

With `CCOC(=O)C1=NN(c2ccc([N+](=O)[O-])cc2)[C@@]2(C)C[C@]3(c4ccccc4)N(c4ccc([N+](=O)[O-])cc4)N=C(C(=O)OCC)N3c3ccccc3N12`, the TGI in assay [1], in [2], in assay [3], in [4], in [5] and in assay [6] was greater than 100 µM in each case. The TGI in assay [7], in assay [8], in assay [9] and in [10] was greater than 100 µM throughout.

With `CC(C)=CC(Cc1ccccc1)S(=O)(=O)c1nc2ccccc2s1` (stereo not given), the TGI in assay [1] is 35 µM; in assay [2] it was 41.9 µM; in assay [3], 41.1 µM; in assay [4], 31.5 µM; in [5], 29.2 µM; in assay [6], 42.9 µM. Also, the TGI turned out to be 22.1 µM in assay [7], 28.5 µM in [8], 66.6 µM in assay [9] and 30.8 µM in [10].

For `NC(=O)NCCCC(NC(=O)OCCCCCCn1ccc(=O)[nH]c1=O)C(=O)O` (stereo not given), the TGI in assay [1], in [2], in assay [3], in assay [4], in assay [5] and in [6] was greater than 100 µM in each case. The TGI in assay [7], in [8], in [9] and in assay [10] was greater than 100 µM throughout.

For the molecule `O=c1c2cc3c(=O)n4c(cc(-c5ccccc5)c5cc(Cl)ccc54)nc3cc2nc2cc(-c3ccccc3)c3cc(Cl)ccc3n12`, the TGI in assay [1], in assay [2], in assay [3], in [4], in assay [5] and in [6] was greater than 100 µM in each case. For the same molecule, the TGI in assay [7], in assay [8], in assay [9] and in assay [10] was greater than 100 µM throughout.

As to `COc1ccc(/C=C2\CCS(=O)(=O)c3ccccc3C2=O)cc1`, the TGI is 61 µM in assay [1]; 46.4 µM in [2]; greater than 100 µM in [3]; 61 µM in assay [4]; 93.8 µM in assay [5]; 47.2 µM in assay [6]. Also, the TGI in assay [7] was 67.5 µM; in [8], 96.4 µM; in [9] it was 98.9 µM; in assay [10], 67.4 µM.

Take `COc1ccc(Cc2nnc(Nc3ccc(Br)cc3)[nH]c2=O)cc1OC`: the TGI in assay [1], in [2], in [3], in assay [4], in assay [5] and in assay [6] was greater than 100 µM each time. Moreover, the TGI in assay [7], in assay [8], in assay [9] and in [10] was greater than 100 µM throughout.
